These molecules were tested on Meloidogyne incognita (assay: Meloidogyne incognita test: gall rating on cucumber plants in pots after soil application). Conditions: 1000 ppm applied to soil inoculated with 5000 eggs & J2s; cucumber seedlings; rated 30 days after application; 0-10 scale (Zeck 1971); untreated check up to 8.
Assay type: in vivo
Set-up: key: 0: no galls; 1: very few small galls; 2: numerous small galls; 3: numerous small galls of which some are grown together; 4: numerous small and some big galls; 25% of roots severely galled; 6: 50% of roots severely galled; 75% of roots severely galled; 8: no healthy roots but plant is still green; 9: roots rotting and plant dying; 10: plant and roots dead
Experimental: Meloidogyne incognita Test:
The trial pots were filled with soil containing a mixture of sand:soil:cocopeat in a ratio of 1:1:1. To the soil of each pot 5 mL of a nematode suspension (Meloidogyne incognita, mix of 5000 eggs & J2s) was added. One hour later the respective test compound at the stated concentration was applied to each pot. 10 days old cucumber seedlings were transplanted into the pots one day after the application. The cucumber plants were allowed to grow at a temperature of 27° C. under greenhouse conditions. The evaluation of the gall rating was recorded 30 days after the application. The plants were carefully uprooted and the roots were thoroughly washed. The gall rating was done on a 0-10 scale as described by Zeck (1971) and shown below: • 0=no galls • 1=very few small galls • 2=numerous small galls • 3=numerous small galls of which some are grown together • 4=numerous small and some big galls • 5=25% of roots severely galled • 6=50% of roots severely galled • 7=75% of roots severely galled • 8=no healthy roots but plant is still green • 9=roots rotting and plant dying • 10=plant and roots dead

Compound | gall rating scale
Cc1c(C(=O)NS(=O)(=O)c2cc(C(F)(F)F)ccc2Cl)nnn1-c1ccc(OC(F)(F)F)cc1Cl [Compound 135] | 4
COc1ccc(Cl)c(S(=O)(=O)NC(=O)c2nnn(-c3ccc(C#N)cc3Cl)c2C)c1 [Compound 260] | 4
COc1ccc(Cl)c(S(=O)(=O)NC(=O)c2nnn(-c3ccc(OC(F)F)cc3Cl)c2C)c1 [Compound 664] | 4
COc1ccc(Cl)c(S(=O)(=O)NC(=O)c2nnn(-c3ccc(Cl)cc3C(F)(F)F)c2C(F)(F)F)c1 [Compound 57] | 4
O=C(NS(=O)(=O)c1ccccc1C(F)(F)F)c1nnn(-c2ccc(Cl)cc2F)c1C(F)(F)F [Compound 640] | 4
Cc1c(C(=O)NS(=O)(=O)c2ccccc2C(F)(F)F)nnn1-c1ccc(Cl)cc1Cl [Compound 241] | 4
Cc1c(C(=O)NS(=O)(=O)c2ccc(Cl)c(F)c2)nnn1-c1ccc(C#N)cc1Cl [Compound 499] | 4
COc1ccc(Cl)cc1S(=O)(=O)NC(=O)c1nnn(-c2ccc(Cl)cc2Cl)c1C(F)(F)F [Compound 598] | 4
Cc1c(C(=O)NS(=O)(=O)c2c(F)cc(F)cc2F)nnn1-c1cc(Cl)cc(C(F)(F)F)c1 [Compound 97] | 4
Cc1c(C(=O)NS(=O)(=O)c2cc(C(F)(F)F)ccc2Cl)nnn1-c1ccc(F)cc1Cl [Compound 252, 1-(2-chloro-4-fluorophenyl)-N-((2-chloro-5-(trifluoromethyl)phenyl)sulfonyl)-5-methyl-1H-1,2,3-triazole-4-carboxamide] | 4
O=C(NS(=O)(=O)c1c(F)cccc1F)c1nnn(-c2ccc(Cl)cc2C(F)(F)F)c1C(F)(F)F [Compound 52] | 4
O=C(NS(=O)(=O)c1ccccc1C(F)(F)F)c1nnn(-c2ccc(Cl)cc2Cl)c1C(F)(F)F [Compound 209] | 4
Cc1c(C(=O)NS(=O)(=O)c2c(F)cc(F)cc2F)nnn1-c1ccc(Cl)cc1Cl [Compound 281, 1-(2,4-dichlorophenyl)-5-methyl-N-((2,4,6-trifluorophenyl)sulfonyl)-1H-1,2,3-triazole-4-carboxamide] | 4
Cc1ccc(C)c(S(=O)(=O)NC(=O)c2nnn(-c3ccc(C#N)cc3Cl)c2C)c1 [Compound 328] | 4
O=C(NS(=O)(=O)c1cc(C(F)(F)F)ccc1Cl)c1nnn(-c2ccc(OC(F)(F)F)cc2Cl)c1C1CC1 [Compound 227, 1-(2-chloro-4-(trifluoromethoxy)phenyl)-N-((2-chloro-5-(trifluoromethyl)phenyl)sulfonyl)-5-cyclopropyl-1H-1,2,3-triazole-4-carboxamide] | 4
O=C(NS(=O)(=O)c1cc(Cl)ccc1Cl)c1nnn(-c2cc(Cl)ccc2Cl)c1C(F)(F)F [Compound 371, 1-(2,5-dichlorophenyl)-N-((2,5-dichlorophenyl)sulfonyl)-5-(trifluoromethyl)-1H-1,2,3-triazole-4-carboxamide] | 4
O=C(NS(=O)(=O)c1ccccc1C(F)(F)F)c1nnn(-c2ccc(F)cc2F)c1C(F)(F)F [Compound 736] | 4
Cc1c(C(=O)NS(=O)(=O)c2cc(C(F)(F)F)ccc2Br)nnn1-c1ccc(C#N)cc1Cl [Compound 458] | 4
Cc1ccccc1S(=O)(=O)NC(=O)c1nnn(-c2ccc(F)cc2F)c1C(F)(F)F [Compound 776] | 4
COc1ccc(Cl)c(S(=O)(=O)NC(=O)c2nnn(-c3cc(C(F)(F)F)cc(C(F)(F)F)c3)c2C)c1 [Compound 108] | 4
Cc1ccc(F)cc1S(=O)(=O)NC(=O)c1nnn(-c2ccc(C#N)cc2Cl)c1C [Compound 516, 1-(2-chloro-4-cyanophenyl)-N-((5-fluoro-2-methylphenyl)sulfonyl)-5-methyl-1H-1,2,3-triazole-4-carboxamide] | 4
Cc1c(C(=O)NS(=O)(=O)c2ccccc2Cl)nnn1-c1cc(Cl)cc(Cl)c1 [Compound 7, N-((2-chlorophenyl)sulfonyl)-1-(3,5-dichlorophenyl)-5-methyl-1H-1,2,3-triazole-4-carboxamide] | 4
O=C(NS(=O)(=O)c1ccccc1C(F)(F)F)c1nnn(-c2cc(Cl)ccc2Cl)c1C(F)(F)F [Compound 335, 1-(2,5-dichlorophenyl)-5-(trifluoromethyl)-N-((2-(trifluoromethyl)phenyl)sulfonyl)-1H-1,2,3-triazole-4-carboxamide] | 4
Cc1c(C(=O)NS(=O)(=O)c2cc(C(F)(F)F)ccc2Cl)nnn1-c1cc(Cl)cc(Cl)c1 [Compound 253] | 4

Compound | gall rating scale
Cc1ccccc1S(=O)(=O)NC(=O)c1nnn(-c2ccc(C#N)cc2Cl)c1C(F)(F)F [Compound 396, 1-(2-chloro-4-cyanophenyl)-N-(o-tolylsulfonyl)-5-(trifluoromethyl)-1H-1,2,3-triazole-4-carboxamide] | 4
COc1ccc(Cl)c(S(=O)(=O)NC(=O)c2nnn(-c3ccc(F)cc3Cl)c2C)c1 [Compound 242] | 4
Cc1c(C(=O)NS(=O)(=O)c2ccccc2C(F)(F)F)nnn1-c1ccc(Cl)cc1F [Compound 443] | 4
Cc1c(C(=O)NS(=O)(=O)c2ccccc2OC(F)(F)F)nnn1-c1cc(Cl)cc(Cl)c1 [Compound 17] | 4
COc1ccc(Cl)c(S(=O)(=O)NC(=O)c2nnn(-c3ccc(Cl)cc3Cl)c2C)c1 [Compound 56] | 4
Cc1c(C(=O)NS(=O)(=O)c2ccccc2C(F)(F)F)nnn1-c1ccc(F)cc1Cl [Compound 245] | 4
COc1ccc(Cl)c(S(=O)(=O)NC(=O)c2nnn(-c3ccc(OC(F)(F)F)cc3Cl)c2C2CC2)c1 [Compound 230, 1-(2-chloro-4-(trifluoromethoxy)phenyl)-N-((2-chloro-5-methoxyphenyl)sulfonyl)-5-cyclopropyl-1H-1,2,3-triazole-4-carboxamide] | 4
O=C(NS(=O)(=O)c1cc(C(F)(F)F)ccc1Cl)c1nnn(-c2ccc(F)cc2Cl)c1C(F)(F)F [Compound 364, 1-(2-chloro-4-fluorophenyl)-N-((2-chloro-5-(trifluoromethyl)phenyl)sulfonyl)-5-(trifluoromethyl)-1H-1,2,3-triazole-4-carboxamide] | 4
Cc1c(C(=O)NS(=O)(=O)c2ccccc2F)nnn1-c1ccc(OC(F)(F)F)cc1Cl [Compound 143] | 4
Cc1ccc(F)cc1S(=O)(=O)NC(=O)c1nnn(-c2ccc(OC(F)(F)F)cc2Cl)c1C [Compound 588] | 4
Cc1c(C(=O)NS(=O)(=O)c2cc(Cl)ccc2Cl)nnn1-c1ccc(OC(F)(F)F)cc1Cl [Compound 134, 1-(2-chloro-4-(trifluoromethoxy)phenyl)-N-((2,5-dichlorophenyl)sulfonyl)-5-methyl-1H-1,2,3-triazole-4-carboxamide] | 4
Cc1c(C(=O)NS(=O)(=O)c2cc(C(F)(F)F)ccc2C(F)(F)F)nnn1-c1ccc(F)cc1F [Compound 690] | 4
Cc1c(C(=O)NS(=O)(=O)c2ccccc2C(F)(F)F)nnn1-c1ccc(F)cc1F [Compound 687] | 4
Cc1ccc(C)c(S(=O)(=O)NC(=O)c2nnn(-c3ccc(OC(F)(F)F)cc3Cl)c2C)c1 [Compound 217] | 4
CCc1c(C(=O)NS(=O)(=O)c2cc(C(F)(F)F)ccc2Cl)nnn1-c1ccc(OC(F)(F)F)cc1Cl [Compound 311, 1-(2-chloro-4-(trifluoromethoxy)phenyl)-N-((2-chloro-5-(trifluoromethyl)phenyl)sulfonyl)-5-ethyl-1H-1,2,3-triazole-4-carboxamide] | 4
COc1ccc(Cl)c(S(=O)(=O)NC(=O)c2nnn(-c3ccc(Cl)cc3F)c2C(F)(F)F)c1 [Compound 630] | 4
Cc1c(C(=O)NS(=O)(=O)c2ccccc2F)nnn1-c1ccc(F)cc1Cl [Compound 246] | 4
Cc1c(C(=O)NS(=O)(=O)c2ccccc2Cl)nnn1-c1ccc(F)cc1F [Compound 689] | 4
CCc1c(C(=O)NS(=O)(=O)c2ccccc2F)nnn1-c1ccc(F)cc1Cl [Compound 378, 1-(2-chloro-4-fluorophenyl)-5-ethyl-N-((2-fluorophenyl)sulfonyl)-1H-1,2,3-triazole-4-carboxamide] | 4
Cc1c(C(=O)NS(=O)(=O)c2cc(Cl)ccc2Cl)nnn1-c1ccc(C#N)cc1Cl [Compound 316, 1-(2-chloro-4-cyanophenyl)-N-((2,5-dichlorophenyl)sulfonyl)-5-methyl-1H-1,2,3-triazole-4-carboxamide] | 4
Cc1ccc(C)c(S(=O)(=O)NC(=O)c2nnn(-c3ccc(Cl)cc3F)c2C)c1 [Compound 433] | 4
Cc1cc(S(=O)(=O)NC(=O)c2nnn(-c3ccc(C#N)cc3Cl)c2C)c(C)cc1Cl [Compound 460] | 4
COc1ccc(Cl)c(S(=O)(=O)NC(=O)c2nnn(-c3ccc(OC(F)(F)F)cc3Cl)c2C)c1 [Compound 133] | 4

From patent US20250129031A1, “1,2,3-TRIAZOLE CARBONYL SULFONYLAMIDE COMPOUNDS AND USE THEREOF” (PI INDUSTRIES LTD., priority 2022, published 2025)
